Experimental data as given in US11744859B2, “Compositions and methods for parenteral administration of therapeutic agents” (EpicentRx, Inc., priority 2017, dated 2023).

Assays:
[1] = in vivo; cited from earlier work
[2] = test system: sepsis model mice (CLP); experiment: CLP sepsis model mice: survival and live bacterial count in blood; type: in vivo, BALB/c mice; details: 24 hour blood samples from septic mice; 25 mg/kg
Experimental: Sepsis model: twenty BALB/c mice (Jackson Labs; 6-8 weeks) were made septic by CLP. Briefly, mice were anesthetized isoflurane (5% induction and 2% maintenance), and subjected to laparotomy. The cecum was exteriorized and ligated distal to the ileocecal valve without causing intestinal obstruction. The cecum was then punctured twice with either a 21 gauge needle, and stool was gently extruded. Lastly, the abdomen was closed 1 mL of saline was injected.

[3] = test system: MCF7/Taxol (Taxol resistance line); experiment: orthotopically implanted MCF7/Taxol human breast carcinoma in mice, tumor volume; type: in vivo, athymic mice (nu/nu); details: either 10 mg/kg or 30 mg/kg, twice per week
Experimental: (§1) 6-week-old-female athymic mice (nu/nu) were implanted orthotopically with 1×10^7 cells/mL human breast carcinoma cells MCF7 or MCF/Taxol (Taxol resistance line) into their mammary fat pad. […] The treatments started when tumors were 100 mm^3. The paclitaxel blood mixes were prepared by incubating whole blood with paclitaxel and an anticoagulant (CPD) for 30 minutes.

[4] = test system: human breast carcinoma cells MCF7; experiment: orthotopically implanted MCF7 human breast carcinoma in mice, tumor volume; type: in vivo, athymic mice (nu/nu); details: either 10 mg/kg or 30 mg/kg, twice per week
Experimental: as §1

[5] = test system: human colorectal HT-29 cancer cells; details: 5 mg/kg, twice a week for three weeks
Text: In this example, human colorectal HT-29 cancer cells will be xenografted to mice.

[6] = test system: human HT-29 colorectal cancer cells; experiment: xenografted HT-29 colorectal tumor in mice, tumor volume; type: in vivo; details: 12 mg/kg, one time
Experimental: FIG. 5 depicts activity of control, oxaliplatin (L-OHP, 12 mg/kg), and whole blood mixed with oxaliplatin (Blood-mix-L-OHP, either 12 mg/kg or 24 mg/kg) in treating xenografted HT-29 colorectal tumor, as measured by tumor volume over time (0-40 days) after each treatment.

[7] = test system: human lung cancer cells A549; experiment: xenografted A549 lung tumor in mice, tumor volume; type: in vivo; details: 50 mg/kg, twice in one week
Experimental: FIG. 1 depicts activity of control, carboplatin (Carbo, 50 mg/kg), and whole blood mixed with carboplatin (Blood-mix-Carbo, either 50 mg/kg or 100 mg/kg) in treating xenografted A549 lung tumor, as measured by tumor volume after each treatment.
In this example, human lung cancer cells A549 were xenografted to mice.

Which “elimination time of the drug” value [1] does the source give for `O=P1(NCCCl)OCCCN1CCCl` (stereo not drawn) [ifosfamide] here?
The value was 7 to 15 h.

Which live bacterial count [2] does the source give for `C[C@@H](O)[C@H]1C(=O)N2C(C(=O)O)=C(SCCN=CN)C[C@H]12` [imipenem] here?
Its live bacterial count is 7.4±0.45 log CFU/mL.

Which “tumor volume compared to control” value [3] does the source give for `CC(=O)O[C@H]1C(=O)[C@@]2(C)[C@H]([C@H](OC(=O)c3ccccc3)[C@]3(O)C[C@H](OC(=O)[C@H](O)[C@@H](NC(=O)c4ccccc4)c4ccccc4)C(C)=C1C3(C)C)[C@]1(OC(C)=O)CO[C@@H]1C[C@@H]2O` [paclitaxel] here?
Its value is “tumor volume was reduced”.

And the “tumor volume compared to control” value [4]?
The value was “tumor volume was reduced”.

With `COc1cccc2c1C(=O)c1c(O)c3c(c(O)c1C2=O)C[C@@](O)(C(=O)CO)C[C@@H]3O[C@H]1C[C@H](N)[C@H](O)[C@H](C)O1` [doxorubicin] as the compound, how does the “tumor volume compared to control” value [5] read?
Its value is “tumor volume is reduced”.

With `O=C1[O][Pt]2([NH][C@@H]3CCCC[C@H]3[NH]2)[O]C1=O` [oxaliplatin] as the compound, how does the “tumor volume compared to control” value [6] read?
Its value is “tumor volume was reduced”.

Which “tumor volume compared to control” value [7] does the source give for `N.N.O=C([O-])C1(C(=O)[O-])CCC1.[Pt+2]` [carboplatin] here?
Its value is “tumor volume was reduced”.

For `CC[C@@]1(O)C(=O)OCc2c1cc1n(c2=O)Cc2cc3c(CN(C)C)c(O)ccc3nc2-1` [Topotecan], which “elimination time of the drug” value [1] is on record?
Its value is 2 to 3 h.

Which “elimination time of the drug” value [1] does the source give for `O=P1(N(CCCl)CCCl)NCCCO1` (stereo not drawn) [Cyclophosphamide] here?
Its value is 3 to 12 h.
